Reference: patent US20240252503A1, “METHODS OF TREATMENT” (Arena Pharmaceuticals, Inc., priority 2021, published 2024)

How the values were obtained:
[1] = tested on: Raynaud phenomenon attacks; conditions: intravenous; cited from earlier work
[2] = Phase 1 multiple-ascending dose study, pharmacokinetics; format: in vivo, human; conditions: for accumulation ratio as measured by AUCtau: 60 and 80 mg Compound 1 TID, after 7 days
Procedure: (§1) A phase 1, randomized, double-blind, placebo-controlled, multiple-ascending dose-escalation study was conducted to assess the safety, tolerability, PD, and steady state PK of Compound 1 from 5 to 80 mg administered orally TID for 7 days in a total of 50 healthy subjects.

[3] = target: human 5-HT2A (Homo sapiens, UniProt P28223); test: Receptor affinity, 5-HT2A; format: binding
From the text: (§2) M1 refers to N-(4-(2-(2-hydroxyethylamino)ethoxy)-3-(1-methyl-1H-pyrazol-5-yl)phenyl)-3-methoxybenzamide. M2 refers to N-(4-(2-aminoethoxy)-3-(1-methyl-1H-pyrazol-5-yl)phenyl)-3-methoxybenzamide.

[4] = target: 5-HT2B receptor (Homo sapiens, UniProt P41595); test: Receptor affinity, 5-HT2B; format: binding
From the text: as §2

[5] = Phase 1 single-dose escalation study, pharmacokinetics; format: in vivo, human; conditions: for half-life compared with parent compound: after single oral dose of Compound 1, healthy subjects
Procedure: (§3) A phase 1, randomized, double-blind, placebo-controlled, single-dose escalation study was conducted to assess the tolerability, PK, and PD of Compound 1 doses of 1 to 320 mg administered orally as a single dose to a total of 91 healthy subjects.

[6] = target: T1, 5-HT2C receptor (Homo sapiens, UniProt P28335); test: Receptor affinity, 5-HT2C; format: binding
T1 sequence (P28335 33-458): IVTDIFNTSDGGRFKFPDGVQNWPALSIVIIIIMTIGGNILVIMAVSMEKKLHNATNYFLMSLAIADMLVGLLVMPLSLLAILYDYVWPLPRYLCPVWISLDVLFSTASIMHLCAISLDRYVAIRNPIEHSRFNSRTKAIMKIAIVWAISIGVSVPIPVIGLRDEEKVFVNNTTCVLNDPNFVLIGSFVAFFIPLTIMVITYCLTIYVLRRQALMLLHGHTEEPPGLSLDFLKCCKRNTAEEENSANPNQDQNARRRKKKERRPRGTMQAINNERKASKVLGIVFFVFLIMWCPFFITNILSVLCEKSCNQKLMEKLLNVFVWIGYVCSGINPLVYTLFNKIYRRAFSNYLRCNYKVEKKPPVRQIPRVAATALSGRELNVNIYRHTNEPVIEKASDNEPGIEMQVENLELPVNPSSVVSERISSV
From the text: as §2

[7] = tested on: Raynaud phenomenon attacks; conditions: intravenous, over 9 weeks, cited from earlier work
[8] = tested on: cold-induced vasoconstriction in the rabbit foot; test: Intra-arterial dosing in anesthetized rabbits, peripheral cooling of hind foot; format: in vivo, New Zealand White rabbit; conditions: intra-arterial 0.05 then 0.1 mg/kg; left hind foot in 40° C., then 15° C. water bath
Procedure: A study was conducted to assess the effects of intra-arterial dosing of Compound 1 and ketanserin on body temperature, peripheral cooling and peripheral blood flow in naïve anesthetized male New Zealand White rabbits.
Formulations of each test compound were prepared by adding saline and vortexing and sonicating until a clear solution was obtained.
Rabbits were sedated with ketamine/xylazine (25/5 mg/kg, subcutaneous) and then intubated and anesthetized with 1-2% isoflurane driven by 100% oxygen (1-2 L/min). Animals were mechanically ventilated and normal body temperature (38-40° C.) was maintained using an external source of heat (e.g., circulating water blanket, heated surgery table). The femoral incision site was infiltrated with 1 mg/kg ID bupivacaine. A catheter for dosing was placed via cutdown in the left femoral artery. […]
At the start of Dose 1 administration, each rabbit's left hind foot was placed in a water bath set to maintain approximately 40° C. […] At 30 minutes post dose start of Dose 2, in Groups 4-6 only, each rabbit's left hind foot was removed to room temperature, monitored and dosed for an additional 15 minutes.
Average percent change of each temperature and blood flow between baseline and each minute of dose administration was determined relative to time-matched vehicle control data.

[9] = tested on: ex vivo 5-HT-mediated amplification of platelet aggregation; test: Phase 1 multiple-ascending dose study, ex vivo platelet aggregation; format: in vivo, human
Procedure: as §1
Administration of Compound 1 inhibited ex vivo 5-HT-mediated amplification of platelet aggregation.

[10] = tested on: thrombin receptor activating peptide (TRAP)-induced platelet aggregation; test: Phase 1 single-dose escalation study, TRAP-induced platelet aggregation; format: in vivo, human; conditions: single oral dose, versus placebo groups
Procedure: as §3
(§4) PD assessment consisted of measuring pre- and post-dose platelet aggregation using an in vitro assay with ADP with and without 5-HT. The degree of thrombin receptor activating peptide (TRAP)-induced platelet aggregation inhibition between groups was similar. However, Compound 1 inhibited 5-HT-mediated amplification of platelet aggregation at doses above 1 mg.

[11] = tested on: 5-HT-mediated amplification of platelet aggregation; test: Phase 1 single-dose escalation study, platelet aggregation with ADP with and without 5-HT; format: in vivo, human; conditions: single oral doses above 1 mg
Procedure: as §3, §4

Sequence of 5-HT2B receptor (P41595 whole entry): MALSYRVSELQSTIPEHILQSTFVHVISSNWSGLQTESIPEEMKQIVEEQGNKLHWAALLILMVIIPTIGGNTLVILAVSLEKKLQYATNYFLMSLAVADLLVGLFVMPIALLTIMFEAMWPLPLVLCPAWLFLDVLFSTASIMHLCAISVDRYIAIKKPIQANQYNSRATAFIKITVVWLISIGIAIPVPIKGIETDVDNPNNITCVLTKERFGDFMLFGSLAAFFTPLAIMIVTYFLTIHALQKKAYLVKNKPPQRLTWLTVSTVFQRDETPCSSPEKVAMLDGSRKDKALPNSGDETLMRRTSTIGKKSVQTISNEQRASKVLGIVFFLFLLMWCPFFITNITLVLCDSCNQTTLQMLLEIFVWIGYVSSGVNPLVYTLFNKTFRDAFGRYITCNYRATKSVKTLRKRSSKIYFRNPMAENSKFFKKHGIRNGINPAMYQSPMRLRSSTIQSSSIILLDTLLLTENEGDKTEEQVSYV
Sequence of human 5-HT2A (P28223 whole entry): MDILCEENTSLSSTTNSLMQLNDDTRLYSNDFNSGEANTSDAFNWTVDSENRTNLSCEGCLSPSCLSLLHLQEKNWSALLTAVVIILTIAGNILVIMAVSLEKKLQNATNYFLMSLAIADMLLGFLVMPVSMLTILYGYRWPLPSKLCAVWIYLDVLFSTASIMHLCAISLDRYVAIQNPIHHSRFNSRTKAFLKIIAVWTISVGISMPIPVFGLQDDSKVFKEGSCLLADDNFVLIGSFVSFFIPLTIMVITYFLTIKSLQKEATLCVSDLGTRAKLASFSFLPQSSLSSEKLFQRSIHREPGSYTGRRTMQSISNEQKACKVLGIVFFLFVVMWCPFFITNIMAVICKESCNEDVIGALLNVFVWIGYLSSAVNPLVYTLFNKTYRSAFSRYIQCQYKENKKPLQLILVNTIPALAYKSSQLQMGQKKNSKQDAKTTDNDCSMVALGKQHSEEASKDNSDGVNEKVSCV

Structure (SMILES) | accumulation ratio as measured by AUCtau [2] | affinity for human 5-HT2A [3] | affinity for 5-HT2B receptor [4] | affinity for 5-HT2C receptor [6] | half-life compared with parent compound [5] | effect on cold-induced vasoconstriction in the rabbit foot [8] | also measured
CCCCC[C@H](O)/C=C/[C@@H]1[C@H]2C/C(=C/CCCC(=O)O)O[C@H]2C[C@H]1O [epoprostenol] |  |  |  |  |  |  | frequency and duration of Raynaud phenomenon attacks [1]: reduced frequency and duration of Raynaud phenomenon attacks; time after the last infusion at which loss in clinical response was observed [1]: 8-10 weeks
CC#CCC(C)[C@H](O)/C=C/[C@@H]1[C@H]2C/C(=C/CCCC(=O)O)C[C@H]2C[C@H]1O (stereo partly drawn) [iloprost] |  |  |  |  |  |  | improvement of severity score ([7]; versus 19.7% in comparator): 34.8%; reduction of weekly Raynaud phenomenon attacks ([7]; versus 22.2% in comparator): 39.1%
COc1cccc(C(=O)Nc2ccc(OCCN3CCOCC3)c(-c3ccnn3C)c2)c1 [Compound 1, 3-methoxy-N-[3-(2-methylpyrazol-3-yl)-4-(2-morpholin-4-ylethoxy)phenyl]benzamide] |  | high affinity | no appreciable affinity | no appreciable affinity |  | partially reduced | dose proportionality of exposure as measured by AUC ([2]; 5 and 10 mg TID): dose proportional; absorption ([2]; 5 to 80 mg oral TID for 7 days, all doses): rapidly absorbed; dose proportionality of exposure as measured by AUC ([2]; 40, 60, and 80 mg TID, Day 1 and Day 7): greater than dose proportional; Cmax and AUC accumulation ratio ([2]; all doses, Day 7 compared with Day 1, TID for 7 days): less than 2; half-life as Compound 1 dose was escalated ([5]; single oral dose 1 to 320 mg): half-life increased; dose proportionality of plasma exposure measures ([5]; single oral dose 1 to 320 mg, healthy subjects): greater than dose proportional; absorption ([5]; single oral dose 1 to 320 mg, healthy subjects, all doses): rapidly absorbed; extent of inhibition of ex vivo 5-HT-mediated amplification of platelet aggregation ([9]; 60 mg and 80 mg doses, following dosing on Days 1, 4, and 7): essentially maximal; ex vivo 5-HT-mediated amplification of platelet aggregation ([9]; 5 to 80 mg oral TID for 7 days): inhibited; degree of TRAP-induced platelet aggregation inhibition between groups [10]: similar; 5-HT-mediated amplification of platelet aggregation [11]: inhibited
O=C(c1ccc(F)cc1)C1CCN(CCn2c(=O)[nH]c3ccccc3c2=O)CC1 [ketanserin, reference compound] |  |  |  |  |  | partially reduced | 

Second part, led by results:

accumulation ratio as measured by AUCtau [2] | affinity for human 5-HT2A [3] | affinity for 5-HT2B receptor [4] | affinity for 5-HT2C receptor [6] | Structure (SMILES) | half-life compared with parent compound [5] | effect on cold-induced vasoconstriction in the rabbit foot [8] | also measured
approximately 2 | high affinity | no appreciable affinity | no appreciable affinity | COc1cccc(C(=O)Nc2ccc(OCCN)c(-c3ccnn3C)c2)c1 [Compound M2, N-(4-(2-aminoethoxy)-3-(1-methyl-1H-pyrazol-5-yl)phenyl)-3-methoxybenzamide] | longer half-lives than the parent compound |  | 
approximately 2 | high affinity | no appreciable affinity | no appreciable affinity | COc1cccc(C(=O)Nc2ccc(OCCNCCO)c(-c3ccnn3C)c2)c1 [Compound M1, N-(4-(2-(2-hydroxyethylamino)ethoxy)-3-(1-methyl-1H-pyrazol-5-yl)phenyl)-3-methoxybenzamide] | longer half-lives than the parent compound |  | 
